Results published in US20230348369A1 (Cytokinetics, Inc., priority 2020, published 2023).

Target: human NAMPT (Homo sapiens, UniProt P43490)
Test: Human recombinant enzyme assay (NMN fluorescence biochemical assay, activation of NAMPT)
Settings: Table A, human recombinant NAMPT, NMN formation, 60 min; for EC50: read-out: EC50 Human
Method in brief: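 Activation of recombinant human NAMPT (6 nM) with 2.5 mM ATP, 20 μM PRPP and 150 μM nicotinamide in 50 mM HEPES pH 7.2, 1 mM DTT, 1 mM CHAPS, 50 mM NaCl, 100 mM MgCl2; 60 min, ambient temperature. NMN formed was derivatized with acetophenone/KOH/formic acid, fluorescence read at 355/460 nm after 40 min.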

Chain of human NAMPT (P43490 whole entry): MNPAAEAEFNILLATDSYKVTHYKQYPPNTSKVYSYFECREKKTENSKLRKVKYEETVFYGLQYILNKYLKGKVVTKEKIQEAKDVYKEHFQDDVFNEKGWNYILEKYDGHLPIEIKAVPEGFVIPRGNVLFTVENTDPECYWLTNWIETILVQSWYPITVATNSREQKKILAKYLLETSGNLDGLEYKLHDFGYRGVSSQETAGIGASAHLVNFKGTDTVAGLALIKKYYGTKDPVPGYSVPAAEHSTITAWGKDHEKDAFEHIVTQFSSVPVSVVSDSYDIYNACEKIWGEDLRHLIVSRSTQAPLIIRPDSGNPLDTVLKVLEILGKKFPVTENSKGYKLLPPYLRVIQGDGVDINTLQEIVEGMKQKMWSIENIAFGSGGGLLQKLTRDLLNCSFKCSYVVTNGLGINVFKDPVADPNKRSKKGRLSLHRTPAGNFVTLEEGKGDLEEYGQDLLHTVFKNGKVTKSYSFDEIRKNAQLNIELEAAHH

## Cc1ccc(NC(=O)CCCCCNC(=O)NCc2ccc(Cl)cc2)cn1 [Compound 278, 6-(3-(4-chlorobenzyl)ureido)-N-(6-methylpyridin-3-yl)hexanamide]
  AC1.4 Human: 1.8 µM
  EC50: 7.1 µM

## O=C(NCCCCCNC(=O)c1ccccn1)NCc1ccc(Cl)cc1 [Compound 279, N-(5-(3-(4-chlorobenzyl)ureido)pentyl)picolinamide]
  AC1.4 Human: 1.8 µM
  EC50: 11.8 µM

## O=C(NCCCCCNC(=O)c1ccccc1F)NCc1ccc(Cl)cc1 [Compound 280, N-(5-(3-(4-chlorobenzyl)ureido)pentyl)-2-fluorobenzamide]
  AC1.4 Human: 0.7 µM
  EC50: 2.6 µM

## Cc1ccc(C(=O)NCCCCCNC(=O)NCc2ccc(Cl)cc2)cn1 [Compound 281, N-(5-(3-(4-chlorobenzyl)ureido)pentyl)-6-methylnicotinamide]
  AC1.4 Human: 1.3 µM
  EC50: 3.9 µM

## COc1ccc(CNC(=O)NCCCCCC(=O)N(C)c2ccccc2F)cc1 [Compound 282, N-(2-fluorophenyl)-6-(3-(4-methoxybenzyl)ureido)-N-methylhexanamide]
  AC1.4 Human: 0.1 µM
  EC50: 3.9 µM

## O=C(Cc1cccnc1)NCCCCCNC(=O)NCc1ccc(Cl)cc1 [Compound 283, N-(5-(3-(4-chlorobenzyl)ureido)pentyl)-2-(pyridin-3-yl)acetamide]
  AC1.4 Human: 8.6 µM
  EC50: 32.8 µM

## O=C(CCCCCNC(=O)NCc1ccc(Cl)cc1)Nc1ccc(F)cc1 [Compound 284, 6-(3-(4-chlorobenzyl)ureido)-N-(4-fluorophenyl)hexanamide]
  AC1.4 Human: 2.8 µM
  EC50: 4.2 µM

## O=C(CCCCCNC(=O)NCc1ccc(Cl)cc1)Nc1cccc(F)c1 [Compound 285, 6-(3-(4-chlorobenzyl)ureido)-N-(3-fluorophenyl)hexanamide]
  AC1.4 Human: 3.5 µM
  EC50: 9.4 µM

## CN(C(=O)CCCCCNC(=O)NCc1ccncc1)c1ccccc1F [Compound 286, N-(2-fluorophenyl)-N-methyl-6-(3-(pyridin-4-ylmethyl)ureido)hexanamide]
  AC1.4 Human: 0.2 µM
  EC50: 2 µM

## O=C(NCCCCC1CCN(C(=O)c2cccnc2)CC1)NCc1ccc(Cl)cc1 [Compound 289, 1-(4-chlorobenzyl)-3-(4-(1-nicotinoylpiperidin-4-yl)butyl)urea]
  AC1.4 Human: 1.1 µM
  EC50: 7.7 µM

## O=C(NCCCCC1CCN(C(=O)c2ccncc2)CC1)NCc1ccc(Cl)cc1 [Compound 290, 1-(4-chlorobenzyl)-3-(4-(1-isonicotinoylpiperidin-4-yl)butyl)urea]
  AC1.4 Human: 1.3 µM
  EC50: 6.2 µM

## O=C(NCCCCC1CCN(C(=O)Cc2ccccc2)CC1)NCc1ccc(Cl)cc1 [Compound 291, 1-(4-chlorobenzyl)-3-(4-(1-(2-phenylacetyl)piperidin-4-yl)butyl)urea]
  AC1.4 Human: 1.9 µM
  EC50: 4.6 µM

## O=C(NCCCCC1CCN(C(=O)c2ccccn2)CC1)NCc1ccc(Cl)cc1 [Compound 292, 1-(4-chlorobenzyl)-3-(4-(1-picolinoylpiperidin-4-yl)butyl)urea]
  AC1.4 Human: 0.5 µM
  EC50: 2 µM

## O=C(NCCCCC1CCN(C(=O)Cc2cccnc2)CC1)NCc1ccc(Cl)cc1 [Compound 294, 1-(4-chlorobenzyl)-3-(4-(1-(2-(pyridin-3-yl)acetyl)piperidin-4-yl)butyl)urea]
  AC1.4 Human: 1.0 µM
  EC50: 10.1 µM

## O=C(NCCCCC1CCN(C(=O)Cc2ccncc2)CC1)NCc1ccc(Cl)cc1 [Compound 295, 1-(4-chlorobenzyl)-3-(4-(1-(2-(pyridin-4-yl)acetyl)piperidin-4-yl)butyl)urea]
  AC1.4 Human: 1.2 µM
  EC50: 8.4 µM

## Cc1cccc(CC(=O)N2CCC(CCCCNC(=O)NCc3ccc(Cl)cc3)CC2)n1 [Compound 299, 1-(4-chlorobenzyl)-3-(4-(1-(2-(6-methylpyridin-2-yl)acetyl)piperidin-4-yl)butyl)urea]
  AC1.4 Human: 1.0 µM
  EC50: 3.8 µM

## O=C(NCCCCC1CCN(C(=O)C2CCOCC2)CC1)NCc1ccc(Cl)cc1 [Compound 300, 1-(4-chlorobenzyl)-3-(4-(1-(tetrahydro-2H-pyran-4-carbonyl)piperidin-4-yl)butyl)urea]
  AC1.4 Human: 1.4 µM
  EC50: 6.5 µM

## O=C1CC(C(=O)N2CCC(CCCCNC(=O)NCc3ccc(Cl)cc3)CC2)CCN1 (stereo not shown) [Compound 301, 1-(4-chlorobenzyl)-3-(4-(1-(2-oxopiperidine-4-carbonyl)piperidin-4-yl)butyl)urea]
  AC1.4 Human: 2.7 µM
  EC50: 26.3 µM

## CN1CCC(C(=O)N2CCC(CCCCNC(=O)NCc3ccc(Cl)cc3)CC2)CC1=O (stereo not shown) [Compound 302, 1-(4-chlorobenzyl)-3-(4-(1-(1-methyl-2-oxopiperidine-4-carbonyl)piperidin-4-yl)butyl)urea]
  AC1.4 Human: 2.0 µM
  EC50: 7.9 µM

## O=C1CC(C(=O)N2CCC(CCCCNC(=O)NCc3ccc(Cl)cc3)CC2)CN1 (stereo not shown) [Compound 303, 1-(4-chlorobenzyl)-3-(4-(1-(5-oxopyrrolidine-3-carbonyl)piperidin-4-yl)butyl)urea]
  AC1.4 Human: 2.6 µM
  EC50: 15.6 µM

## CN1CC(C(=O)N2CCC(CCCCNC(=O)NCc3ccc(Cl)cc3)CC2)CC1=O (stereo not shown) [Compound 304, 1-(4-chlorobenzyl)-3-(4-(1-(1-methyl-5-oxopyrrolidine-3-carbonyl)piperidin-4-yl)butyl)urea]
  AC1.4 Human: 1.7 µM
  EC50: 10.6 µM

## O=C(NCCCCC1CCN(C(=O)c2ncco2)CC1)NCc1ccc(Cl)cc1 [Compound 305, 1-(4-chlorobenzyl)-3-(4-(1-(oxazole-2-carbonyl)piperidin-4-yl)butyl)urea]
  AC1.4 Human: 0.2 µM
  EC50: 0.4 µM

## O=C(NCCCCC1CCN(C(=O)c2ccno2)CC1)NCc1ccc(Cl)cc1 [Compound 306, 1-(4-chlorobenzyl)-3-(4-(1-(isoxazole-5-carbonyl)piperidin-4-yl)butyl)urea]
  AC1.4 Human: 0.4 µM
  EC50: 1.2 µM

## O=C(NCCCCC1CCN(c2ccccn2)CC1)NCc1ccc(Cl)cc1 [Compound 307, 1-(4-chlorobenzyl)-3-(4-(1-(pyridin-2-yl)piperidin-4-yl)butyl)urea]
  AC1.4 Human: 1.9 µM
  EC50: 7.3 µM

## O=C(NCCCCC1CCN(c2ccncc2)CC1)NCc1ccc(Cl)cc1 [Compound 308, 1-(4-chlorobenzyl)-3-(4-(1-(pyridin-4-yl)piperidin-4-yl)butyl)urea]
  AC1.4 Human: 2.2 µM
  EC50: 5 µM

## Cc1ccc(C(=O)N2CCC(CCCCNC(=O)NCc3ccc(Cl)cc3)CC2)cn1 [Compound 309, 1-(4-chlorobenzyl)-3-(4-(1-(6-methylnicotinoyl)piperidin-4-yl)butyl)urea]
  AC1.4 Human: 2.1 µM
  EC50: 6.5 µM

## Cc1ncccc1CC(=O)N1CCC(CCCCNC(=O)NCc2ccc(Cl)cc2)CC1 [Compound 310, 1-(4-chlorobenzyl)-3-(4-(1-(2-(2-methylpyridin-3-yl)acetyl)piperidin-4-yl)butyl)urea]
  AC1.4 Human: 0.8 µM
  EC50: 4.1 µM

## Cc1ccc(CC(=O)N2CCC(CCCCNC(=O)NCc3ccc(Cl)cc3)CC2)cn1 [Compound 311, 1-(4-chlorobenzyl)-3-(4-(1-(2-(6-methylpyridin-3-yl)acetyl)piperidin-4-yl)butyl)urea]
  AC1.4 Human: 1.2 µM
  EC50: 3.4 µM

## Cn1cc(C(=O)N2CCC(CCCCNC(=O)NCc3ccc(Cl)cc3)CC2)nn1 [Compound 312, 1-(4-chlorobenzyl)-3-(4-(1-(1-methyl-1H-1,2,3-triazole-4-carbonyl)piperidin-4-yl)butyl)urea]
  AC1.4 Human: 1.5 µM
  EC50: 5.4 µM

## Cc1ccccc1CC(=O)N1CCC(CCCCNC(=O)NCc2ccc(Cl)cc2)CC1 [Compound 313, 1-(4-chlorobenzyl)-3-(4-(1-(2-(o-tolyl)acetyl)piperidin-4-yl)butyl)urea]
  AC1.4 Human: 0.7 µM
  EC50: 1.4 µM

## O=C(NCCCCC1CCN(C(=O)c2ccccc2C(F)F)CC1)NCc1ccc(Cl)cc1 [Compound 314, 1-(4-chlorobenzyl)-3-(4-(1-(2-(difluoromethyl)benzoyl)piperidin-4-yl)butyl)urea]
  AC1.4 Human: 0.5 µM
  EC50: 0.7 µM

## O=C(NCCCCC1CCN(C(=O)c2ccccc2-c2nnn[nH]2)CC1)NCc1ccc(Cl)cc1 [Compound 315, 1-(4-(1-(2-(1H-tetrazol-5-yl)benzoyl)piperidin-4-yl)butyl)-3-(4-chlorobenzyl)urea]
  AC1.4 Human: 0.9 µM
  EC50: 2 µM

## O=C(NCCCCC1CCN(C(=O)Cc2cn[nH]c2)CC1)NCc1ccc(Cl)cc1 [Compound 316, 1-(4-(1-(2-(1H-pyrazol-4-yl)acetyl)piperidin-4-yl)butyl)-3-(4-chlorobenzyl)urea]
  AC1.4 Human: 1.4 µM
  EC50: 6.4 µM

## O=C(NCCCCN1CCN(C(=O)c2ccccc2)CC1)NCc1ccc(Cl)cc1 [Compound 317, 1-(4-(4-benzoylpiperazin-1-yl)butyl)-3-(4-chlorobenzyl)urea]
  AC1.4 Human: 4.2 µM
  EC50: 25.1 µM

## O=C(NCCCCC1CCN(c2nn[nH]n2)CC1)NCc1ccc(Cl)cc1 [Compound 318, 1-(4-(1-(2H-tetrazol-5-yl)piperidin-4-yl)butyl)-3-(4-chlorobenzyl)urea]
  AC1.4 Human: 3.9 µM
  EC50: 8.8 µM

## Cc1cccc(C)c1C(=O)N1CCC(CCCCNC(=O)NCc2ccc(Cl)cc2)CC1 [Compound 319, 1-(4-chlorobenzyl)-3-(4-(1-(2,6-dimethylbenzoyl)piperidin-4-yl)butyl)urea]
  AC1.4 Human: 0.8 µM
  EC50: 0.8 µM

## Cc1ccccc1C(=O)N1CCC(CCCCNC(=O)NCc2cnco2)CC1 [Compound 320, 1-(4-(1-(2-methylbenzoyl)piperidin-4-yl)butyl)-3-(oxazol-5-ylmethyl)urea]
  AC1.4 Human: 0.1 µM
  EC50: 1.4 µM

## Cc1ccccc1C(=O)N1CCC(CCCCNC(=O)NCc2ccc(C(N)=O)cc2)CC1 [Compound 321, 4-((3-(4-(1-(2-methylbenzoyl)piperidin-4-yl)butyl)ureido)methyl)benzamide]
  AC1.4 Human: 0.1 µM
  EC50: 2.1 µM
